“Also recorded” adds a separate entry of the source.
Assays:
[1] = target: T1, TLR4 (Mus musculus, UniProt Q9QUK6); assay: RAW264.7 cell nitric oxide TLR selectivity assay (LPS); assay type: cell-based; details: 27 μM
T1 construct: endogenous in cells; host or cells: RAW 264.7
T1 sequence (Q9QUK6 26-835): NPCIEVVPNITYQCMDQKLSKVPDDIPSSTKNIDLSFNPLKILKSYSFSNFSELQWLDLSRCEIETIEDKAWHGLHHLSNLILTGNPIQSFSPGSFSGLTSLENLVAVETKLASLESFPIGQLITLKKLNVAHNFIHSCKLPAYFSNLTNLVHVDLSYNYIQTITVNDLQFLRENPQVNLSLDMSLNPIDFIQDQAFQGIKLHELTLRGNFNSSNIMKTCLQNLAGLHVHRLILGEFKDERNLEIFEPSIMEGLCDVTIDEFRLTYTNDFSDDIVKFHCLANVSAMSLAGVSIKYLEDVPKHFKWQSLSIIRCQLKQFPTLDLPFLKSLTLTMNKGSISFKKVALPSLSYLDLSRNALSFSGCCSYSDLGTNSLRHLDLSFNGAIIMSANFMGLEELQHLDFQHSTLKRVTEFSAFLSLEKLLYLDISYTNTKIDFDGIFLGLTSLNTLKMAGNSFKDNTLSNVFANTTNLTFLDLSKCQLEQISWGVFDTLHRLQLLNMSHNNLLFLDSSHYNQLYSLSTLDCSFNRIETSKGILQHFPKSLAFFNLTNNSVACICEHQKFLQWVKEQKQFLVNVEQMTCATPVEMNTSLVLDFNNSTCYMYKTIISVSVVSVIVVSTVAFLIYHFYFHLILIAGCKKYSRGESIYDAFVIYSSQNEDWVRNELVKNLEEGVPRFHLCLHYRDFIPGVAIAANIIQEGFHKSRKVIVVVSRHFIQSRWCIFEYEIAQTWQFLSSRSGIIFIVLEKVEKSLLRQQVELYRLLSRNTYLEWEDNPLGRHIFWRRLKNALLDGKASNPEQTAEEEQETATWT
T1 sequence (Q9JHF9 19-160 partner): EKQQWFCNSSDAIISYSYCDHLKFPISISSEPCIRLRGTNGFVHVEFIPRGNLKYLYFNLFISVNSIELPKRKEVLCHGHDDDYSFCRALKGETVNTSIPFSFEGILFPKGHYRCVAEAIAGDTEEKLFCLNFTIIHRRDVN

[2] = target: T2, TLR2/6 (Mus musculus, UniProt Q9EPW9+Q9QUN7); assay: RAW264.7 cell nitric oxide TLR selectivity assay (FSL-1); assay type: cell-based; details: 27 μM
T2 construct: endogenous in cells; host or cells: RAW 264.7

[3] = target: T3, TLR3 (Homo sapiens, UniProt O15455); assay: Fluorescence anisotropy assay, competition with Rhodamine labeled Poly IC; assay type: binding
T3 construct: purchased R &D
T3 sequence (O15455 24-904): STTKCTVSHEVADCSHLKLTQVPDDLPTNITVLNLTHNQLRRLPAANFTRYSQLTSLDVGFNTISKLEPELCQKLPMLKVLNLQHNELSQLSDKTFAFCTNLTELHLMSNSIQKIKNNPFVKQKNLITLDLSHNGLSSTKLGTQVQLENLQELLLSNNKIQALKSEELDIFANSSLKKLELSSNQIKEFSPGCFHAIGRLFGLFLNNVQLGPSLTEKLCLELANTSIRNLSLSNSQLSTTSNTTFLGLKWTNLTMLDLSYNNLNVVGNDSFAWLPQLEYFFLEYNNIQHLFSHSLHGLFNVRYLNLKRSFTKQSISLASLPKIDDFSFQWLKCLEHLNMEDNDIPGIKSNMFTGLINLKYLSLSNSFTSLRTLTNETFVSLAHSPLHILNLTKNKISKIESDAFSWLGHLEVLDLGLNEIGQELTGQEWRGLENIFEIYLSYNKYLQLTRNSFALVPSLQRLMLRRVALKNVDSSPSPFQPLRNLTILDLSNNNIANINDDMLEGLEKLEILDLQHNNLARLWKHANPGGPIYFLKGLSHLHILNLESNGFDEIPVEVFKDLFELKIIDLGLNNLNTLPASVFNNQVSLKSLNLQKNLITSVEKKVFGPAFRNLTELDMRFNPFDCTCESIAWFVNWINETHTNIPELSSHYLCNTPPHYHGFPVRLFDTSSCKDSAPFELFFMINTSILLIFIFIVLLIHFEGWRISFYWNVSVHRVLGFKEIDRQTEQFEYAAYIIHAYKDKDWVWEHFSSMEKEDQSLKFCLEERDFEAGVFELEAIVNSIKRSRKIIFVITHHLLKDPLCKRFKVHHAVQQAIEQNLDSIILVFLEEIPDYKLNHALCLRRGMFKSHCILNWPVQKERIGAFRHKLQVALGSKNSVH
Method: The anisotropy of Rhodamine labeled Poly IC increased from approximately 0.116 to 0.171 upon addition of TLR3 (excitation=546 nm; emission=576 nm).
In 500 μL Tris buffer (pH=7.2) add 5 μL (1 μg/mL) Rhodamine labeled Poly IC (Invivogen), test the anisotropy at excitation of 546 nm and emission of 576 nm (Horiba Fluorolog 3). An addition 3 μL (20 μM) of TLR3 (R &D) was added in the buffer, then test the anisotropy again. Following, 4a was added in the buffer from 0 to 68 μM, and the fluorescence anisotropy was tested when the concentration was changed.

[4] = tested on: RANTES; assay: In vivo poly IC-induced RANTES production; parameters: species or system mice
[5] = tested on: XMRV-induced IP-10/CXCL10 production; assay: XMRV-induced IP-10 mRNA (RT-PCR) in LNCaP cells; assay type: cell-based, human

T2 sequence (Q9QUN7 25-784): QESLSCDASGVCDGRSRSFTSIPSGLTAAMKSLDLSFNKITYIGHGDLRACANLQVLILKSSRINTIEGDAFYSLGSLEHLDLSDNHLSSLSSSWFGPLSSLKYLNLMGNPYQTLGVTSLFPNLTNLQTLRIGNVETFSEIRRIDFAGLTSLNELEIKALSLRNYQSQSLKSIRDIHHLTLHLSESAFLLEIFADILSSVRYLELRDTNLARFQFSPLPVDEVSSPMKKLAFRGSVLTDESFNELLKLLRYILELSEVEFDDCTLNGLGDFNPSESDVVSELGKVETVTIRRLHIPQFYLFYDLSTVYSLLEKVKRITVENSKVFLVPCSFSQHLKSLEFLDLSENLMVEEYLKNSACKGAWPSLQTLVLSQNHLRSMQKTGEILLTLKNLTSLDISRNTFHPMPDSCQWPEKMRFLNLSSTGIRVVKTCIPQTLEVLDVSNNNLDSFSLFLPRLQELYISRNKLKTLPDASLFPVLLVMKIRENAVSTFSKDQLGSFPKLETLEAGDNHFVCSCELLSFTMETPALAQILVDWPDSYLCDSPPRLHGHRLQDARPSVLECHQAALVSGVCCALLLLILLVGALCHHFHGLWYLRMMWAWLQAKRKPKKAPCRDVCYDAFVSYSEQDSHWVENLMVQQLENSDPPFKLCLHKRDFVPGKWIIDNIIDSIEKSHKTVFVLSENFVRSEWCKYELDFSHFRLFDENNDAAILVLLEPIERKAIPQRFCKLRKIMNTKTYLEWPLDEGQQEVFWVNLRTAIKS
T2 sequence (Q9EPW9 28-795): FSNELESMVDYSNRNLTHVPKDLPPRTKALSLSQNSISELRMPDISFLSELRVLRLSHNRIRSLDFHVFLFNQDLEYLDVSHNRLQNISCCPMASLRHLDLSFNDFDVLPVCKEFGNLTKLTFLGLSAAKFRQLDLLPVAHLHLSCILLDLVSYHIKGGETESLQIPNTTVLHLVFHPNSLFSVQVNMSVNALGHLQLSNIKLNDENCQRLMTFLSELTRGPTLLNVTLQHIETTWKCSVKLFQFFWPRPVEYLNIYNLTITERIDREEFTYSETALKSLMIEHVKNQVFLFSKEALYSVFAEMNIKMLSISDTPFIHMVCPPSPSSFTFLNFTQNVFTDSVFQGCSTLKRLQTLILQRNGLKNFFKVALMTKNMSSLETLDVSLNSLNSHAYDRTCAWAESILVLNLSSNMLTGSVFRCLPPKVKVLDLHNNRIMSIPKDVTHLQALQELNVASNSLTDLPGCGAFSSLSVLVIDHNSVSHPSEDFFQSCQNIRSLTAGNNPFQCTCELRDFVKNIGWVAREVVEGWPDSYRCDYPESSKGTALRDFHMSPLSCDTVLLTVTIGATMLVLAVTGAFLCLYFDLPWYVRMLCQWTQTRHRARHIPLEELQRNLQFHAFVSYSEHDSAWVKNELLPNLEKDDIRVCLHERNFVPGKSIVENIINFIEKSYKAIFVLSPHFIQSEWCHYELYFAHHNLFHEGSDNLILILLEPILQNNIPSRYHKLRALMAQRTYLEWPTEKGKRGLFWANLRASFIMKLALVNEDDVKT

Compound: O=C(N[C@H](Cc1ccccc1)C(=O)O)c1sc2cc(F)ccc2c1Cl [Compound 4a, (R)-2-(3-chloro-6-fluorobenzo[b]thiophene-2-carboxamido)-3-phenylpropanoic acid]
- effect on TLR4 signaling [1]: without significantly affecting other TLRs
- effect on TLR2/6 signaling [2]: without significantly affecting other TLRs
- TLR3 binding competition with dsRNA [3]: competes with dsRNA in binding to TLR3
- Ki ([3]; competes with dsRNA for binding to TLR3): 2.96 ± 0.32 µM
- anisotropy of Rhodamine labeled Poly IC ([3]; compound concentration increased to 68 μM): decreased the anisotropy to background levels
- RANTES production with increased pre-treatment doses ([4]; pretreatment before poly IC i.v.): decrease of RANTES in a dose-dependent manner; also recorded: decreasing RANTES production
- RANTES production with increasing poly IC doses ([4]; pretreatment with 27 μg): significant decrease in RANTES production; also recorded: decreased RANTES production
- XMRV-induced IP-10 production ([5]; 50 μM, RT-PCR of IP-10 mRNA): inhibits XMRV-induced IP-10 production
- XMRV-induced IP-10/CXCL10 production ([5]; 10 and 25 μM, RT-PCR): inhibition of XMRV-induced IP-10/CXCL10 production

From patent US9409880B2, “Modulators of TLR3/dsRNA complex and uses thereof” (The Regents of the University of Colorado, a body corporate, priority 2011, dated 2016)
